Reference: patent publication US20230417736A1, “MONITORING MEMBRANE PROTEIN TRAFFICKING FOR DRUG DISCOVERY AND DRUG DEVELOPMENT” (UNIVERSITY OF HOUSTON SYSTEM, priority 2020, published 2023)

Target: T1, human β2AR (Homo sapiens, UniProt P07550)
T1 construct: expressed in transfected cells
Test: GPCR internalization assay using NanoBiT technology (β2AR-SmBiT with LgBiT-FYVE, early endosomes)
Type: cell-based
Conditions: for Internalization of GPCRs (luminescent signal) in the presence of endocytosis inhibitors: 10 μM of endocytosis inhibitors, cells pretreated, then ligand stimulation
Text: Applicant initially focused on studying the different internalization rates of class A G-protein coupled receptors (GPCRs). For this, Applicant first established a set of GPCRs involved in a wide variety of physiological functions and diseases such as Galanin (GAL receptors), Chemokine receptors (CCR), and β-adrenergic receptors ((βAR). Applicant devised a strategy to monitor how the GPCR bound to its corresponding ligand is removed from the cell surface, subsequently localized in early endosomes, and then finally recycled into the cell membrane. To accomplish this, Applicant covalently linked a small fragment of NLuc (SmBiT) to the C-terminal of the receptor, where a flexible linker is located between the two proteins (FIGS. 9-10). This linker was designed to be composed mainly of glycine and alanine amino acids to provide flexibility and not to alter the pharmacological properties of the native receptor (FIGS. 2A-2B).
FYVE domains bind phosphatidylinositol 3-phosphate from early endosomes, in a manner that is dependent on its metal ion coordination and basic amino acids. This FYVE domain inserts into cell membranes in a pH-dependent manner, where it is composed of two small beta hairpins (or zinc knuckles) and followed by an alpha helix. Additionally, the FYVE finger binds two zinc ions where this FYVE finger has eight potential zinc coordinating cysteine positions and is characterized by having basic amino acids around the cysteines. To achieve this, the gene of the FYVE domain of the human Endofin (residues from Q739 to K806) was synthesized and covalently attached by molecular cloning into a large fragment of NLuc (LgBiT) at the N-termini (FIGS. 2A-2B).
The ability to monitor internalization in response to ligand stimulation was assessed in HEK293 cells expressing the corresponding human receptor. In the case of GPCRs, the assay was performed using the corresponding endogenous ligands (i.e., epinephrine).
HEK293 cells were maintained in Dulbecco's modified Eagle's medium (DMEM) supplemented with 10% fetal bovine serum (FBS), 100 U/ml penicillin G, and […] streptomycin (Invitrogen; Carlsbad, CA, USA). At 1 day before transfection, the cells were seeded in 96-well plates at a density of 2.5×10^4 cells per well. […] After a 10 minute incubation, 25 μl substrate (furimazine) was added, and once every minute subsequent luminescence measurements were taken for 5-10 minutes for signal stabilization. A total of 10 μl of ligand, antibody, or viral suspension was then added to each well and luminescence measurements were recorded immediately and once every minute for 1-3 hours (Synergy 2 Multi-Mode Microplate Reader BioTek, Winooski, VT, USA).

T1 sequence (P07550 whole entry): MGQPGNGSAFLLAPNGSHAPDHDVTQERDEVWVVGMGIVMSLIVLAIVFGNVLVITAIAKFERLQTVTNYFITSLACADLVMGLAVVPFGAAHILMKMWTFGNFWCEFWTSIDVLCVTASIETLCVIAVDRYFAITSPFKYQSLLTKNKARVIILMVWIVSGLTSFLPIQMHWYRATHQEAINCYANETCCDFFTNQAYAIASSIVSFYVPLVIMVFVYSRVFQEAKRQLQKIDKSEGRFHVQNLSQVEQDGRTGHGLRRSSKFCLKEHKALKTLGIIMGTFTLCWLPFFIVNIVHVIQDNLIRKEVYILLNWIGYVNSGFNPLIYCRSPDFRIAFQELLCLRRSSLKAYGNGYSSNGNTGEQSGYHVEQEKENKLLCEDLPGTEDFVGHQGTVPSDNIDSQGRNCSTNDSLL

Structure (SMILES)	Internalization of GPCRs (luminescent signal) in the presence of endocytosis inhibitors	Blue luminescent signal (β2AR translocation into early endosomes) in response to the agonist (different concentrations of epinephrine)
Cn1c(CNc2cccc(C(=O)NCc3ccccc3C(F)(F)F)c2)nnc1-c1ccncc1 [Cmpd101]	inhibited	–
CNC[C@H](O)c1ccc(O)c(O)c1 [epinephrine]	–	increased the blue luminescent signal in a concentration-dependent manner
O=C(N/N=C/c1ccc(O)c(O)c1)c1cc2ccccc2cc1O [Dynasore]	inhibited	–
O=C1N=C(NS(=O)(=O)c2cccc3ccccc23)SC1=Cc1ccc(Br)cc1 [PiTStop]	inhibited	–
